# Test results as given in patent US6649605B2, “Treatment of tension-type headaches with NMDA receptor antagonists” (Head Explorer A/S, priority 1996, dated 2003).
# Entries after “also recorded” stand apart in the source; their conditions may differ.
# Tests used:
# Type in all cases: in vivo, human
# [1] = system: patients with chronic tension-type headache; assay: Total Tenderness Score of pericranial myofascial tissues after L-NMMA; details: 6 mg/kg i.v., hydrochloride
# Source text: (§1) Sixteen patients with a diagnosis of chronic tension-type headache according to the criteria of the International Headache Society (Headache Classification Committee 1988) were included (Table XVII). Five of the patients had coexisting infrequent migraine (<four days/year). The patients were recruited from the out-patient headache clinic at Glostrup University Hospital without respect to presence or absence of myofascial tenderness. All patients underwent a general physical and a neurological examination and completed a diagnostic headache diary during a 4-week run-in period (Russell et al. 1992). […]
# (§2) The recordings were performed in a standardized manner by the same observer, a trained technician (HA), throughout the study. All parameters were recorded at baseline, 60 and 120 minutes after start of infusion. […] Headache intensity was measured on a 100 mm Visual Analog Scale (VAS) (0-no headache and 100-worst imaginable headache) before, during and after start of infusion.
# Total tenderness. […] Tenderness was scored on a 4-point (0-3) scale at each location (local tenderness score) and values from left and right sides were summed to a Total Tenderness Score (TTS) (maximum possible score=48). […]
# [2] = system: patients with chronic tension-type headache; assay: Pressure pain detection thresholds (electronic pressure algometer) after L-NMMA
# Source text: as §1, §2
# Pressure pain thresholds Pressure pain detection thresholds (PPDTs) were measured at the dorsum of the second finger (middle phalanx) and at a fixed point at the anterior part of the temporal muscle as previously described (Bendtsen et al. 1996b). […] Each threshold was calculated as the mean of five consecutive determinations performed with intervals of approximately 30 seconds. […]
# [3] = system: trapezius muscle of patients with chronic tension-type headache; assay: Muscle hardness of the trapezius muscle (hardness meter) after L-NMMA; details: 6 mg/kg i.v.
# Source text: as §1
# Muscle hardness. The muscle hardness of the trapezius muscle was measured with a hardness meter, which has previously been described in detail (Horikawa et al. 1993). […]
# as §2
# Muscle hardness. The muscle hardness was measured at a standard anatomical point on the trapezius muscle On the non-dominant side, as previously described (Ashina et al. 1998b). […] The muscle hardness was calculated as the mean of five consecutive determinations. […]
compound,measurement,setting,value
"CN=C(N)NCCC[C@H](N)C(=O)O.Cl [L-NMMA, L-N^G methyl arginine hydrochloride]",TTS compared with baseline,[1]; p=0.007 and p=0.008,"significantly reduced at 60 and 120 minutes; also recorded: significantly), reduced at 60 and 120 minutes"
same,Tenderness score (summary) compared with placebo,[1]; p=0.11,tended to be reduced; also recorded: tended to be reduced more; also recorded: not significant
same,PPDTs compared with pre-treatment values,"[2]; finger and temporal region, hydrochloride",no changes in PPDTs at 60 and 120 minutes; also recorded: largely unchanged
same,PPDTs compared with placebo,"[2]; finger p=0.78, temporal region p=0.77",no significant difference
same,Muscle hardness (summary score) compared with placebo,"[3]; p=0.04, hydrochloride",significantly more reduced; also recorded: reduces muscle hardness; also recorded: reduced significantly more; also recorded: significantly reduced
same,Muscle hardness compared with baseline,[3]; p=0.04 and p<0.05,significantly reduced at 60 and 120 minutes
